Laboratory results published in patent publication US4020111A, “Propynyloxy alkyl arene insecticides” (priority 1975, dated 1977).

Key:
[1] = tested on: Wilson strain house flies; type: in vivo, house fly (susceptible Wilson strain); conditions: for Contact Synergistic Ratio, Carbaryl (LC50 insecticide alone / LC50 with synergist): in vivo; for Contact Synergistic Ratio, Pyrolan (LC50 insecticide alone / LC50 with synergist): synergist to insecticide 5:1 by weight, 24 h
Summary of the method: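 Flies held at room temperature in glass jars coated with acetone-deposited insecticide film, alone or with synergist at 5:1 synergist:insecticide by weight; 10% sugar supplied.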

[2] = tested on: IN/WHO strain house flies; test: topical application test, percent kill after 24 hours, IN/WHO strain; type: in vivo, house fly (susceptible IN/WHO strain)
Summary of the method: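 Susceptible female IN/WHO house flies, 3–5 days old, CO2-anesthetized, received synergist plus insecticide in acetone (1.0 μL) on the thorax; doses in μg/fly. Flies held 10 per dish, 3–5 dishes/treatment, with skim milk; mortality (percent kill) read at 24 h.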

[3] = tested on: Rutgers A strain house flies; test: topical application test, percent kill after 24 hours, Rutgers A strain; type: in vivo, house fly (resistant Rutgers A strain)
Protocol: In Table IX, and in the tables following it, the doses of topically applied insecticides and of synergists unless otherwise noted are expressed as micrograms per fly (μg/fly).
The synergistic effect of O-(2-propynyl) oximes with mobam was determined from topical application tests on susceptible, female, IN/WHO strain house flies and from tests on resistant, female, Rutgers A strain house flies. The synergist and insecticide were dissolved in ACS Grade acetone in such quantities that a 1.0μ liter volume applied to the thorax of 3-to-5 day old CO2 -anesthetized female adult house flies contained the desired dosage. After being treated, the flies were confined, 10 to a plaster petri dish, with 3-5 dishes/treatment, and held for 24-hr. observation of mortality. Reconstituted skim milk on cotton dental wicks was provided during the holding period. The percent kills after 24 hours are shown in Table X for the IN/WHO strain and Table XI for the Rutgers A strain.
The synergistic effect of benzyl 2-propynyl ethers with mobam was determined from topical application tests on IN/WHO and Rutgers A strain houseflies, following the procedure of Example 5. The percent kills after 24 hours are shown in Table XIV for the IN/WHO strain and in Table XV for the Rutgers A strain.
The synergistic effect with Diazinon of compounds I-B, I-D, I-F, I-G, I-H and I-I, identified in Tables I and Ia, was determined from topical application tests on IN/WHO strain houseflies and on Rutgers A strain houseflies by the procedure of Example 5. The percent kills after 24 hours are shown in Table XXV for the IN/WHO strain and Table XXVI for the Rutgers A strain.
The synergistic effect with GS 13005 of compounds I-A, I-B, I-D, I-E, I-F, I-G and I-I was determined from topical application tests to IN/WHO strain, Rutgers A strain and polyvalent CH strain houseflies using the procedures of Example 5. The percent kills of the IN/WHO strain flies after 24 hours are shown in Table XXVIII; of the Rutgers A strain, in Table XXIX; and of the polyvalent CH strain, in Table XXX. The doses of insecticide alone to the CH strain files caused 10-40% mortality.
The synergistic effect with Diazinon and GS 13005 of various of the benzyl 2-propynyl ethers identified in Tables II and IIa was determined by topical application tests on IN/WHO strain, and Rutgers A strain and polyvalent, resistant, CH strain houseflies using the procedures of Example 5. The percent kills after 24 hours of IN/WHO strain flies are shown in Table XXXI; of Rutgers A strain flies, in Table XXXII; and of CH strain flies, in Table XXXIII. The doses of insecticide alone to the CH strain flies caused 10-40% mortality.
The synergistic effect on IN/WHO strain flies and Rutgers A strain flies of compound IV-C with GS 13005 and with Diazinon was determined by the topical application procedure of Example 5. The percent kills of IN/WHO strain flies after 24 hours are shown in Tables XXXVI and XXXVII; the percent kills of Rutgers A strain flies are shown in Tables XXXVIII and XXXIX.

[4] = tested on: CH strain flies; test: spray application of pyrethrum, average percent knockdown with time; type: in vivo, housefly (CH strain); conditions: pyrethrum 100 + synergist 100 mg/cc
Protocol: The average percent knockdown of CH strain flies, as a function of time, resulting from spray application of pyrethrum, alone and with synergists, are given in Table XXXXIII. Duplicate tests were performed using 50 CH strain houseflies per test. Test solutions of 100 mg and 200mg of pyrethrum per cc of acetone, 200 mg of synergist per cc of acetone, and a mixture of 100 mg of pyrethrum and 100 mg of synergist per cc of acetone were prepared. The fifty CH strain houseflies were put in a 40 liter spray chamber and 1 cc of the test solution was sprayed into the test chamber with a spray pistol. The synergists alone at 200 mg/cc caused no knockdown.

[5] = tested on: mice; test: acute toxicity of Dimetilan alone and of synergist alone (intraperitoneal); type: in vivo, Swiss albino white male mice; conditions: synergist alone 1000 mg/kg ip, 72 hours, of eight mice
[6] = Mobam 0.10 + synergist 0.50 μg/fly
[7] = Mobam 0.15 + synergist 0.75 μg/fly
[8] = Diazinon 0.03 + synergist 0.15 μg/fly
[9] = Mobam 0.20 + synergist 1 μg/fly
[10] = Mobam 0.30 + synergist 1.5 μg/fly
[11] = Mobam 0.05 + synergist 0.25 μg/fly
[12] = Mobam 0.50 μg/fly, synergist/insecticide 5/1
[13] = Mobam 1.0 μg/fly, synergist/insecticide 1/1
[14] = Mobam 1.0 μg/fly, synergist/insecticide 2/1
[15] = Mobam 1.0 μg/fly, synergist/insecticide 5/1

## C#CCON=C(C)c1ccc(Cl)cc1 [I-D]
[1]
  Contact Synergistic Ratio, Carbaryl (LC50 insecticide alone / LC50 with synergist): 177
  Contact Synergistic Ratio, Pyrolan (LC50 insecticide alone / LC50 with synergist): 25
[2]; [6]
  percent kill after 24 hours: 20%
[3]; [7]
  percent kill after 24 hours: 19%
[3]; Mobam 0.60 + synergist 3.0 μg/fly
  percent kill after 24 hours: 100%
[4]; 5 min
  average percent knockdown: 6%
[4]; 10 min
  average percent knockdown: 15%
[4]; 15 min
  average percent knockdown: 26%
[4]; 20 min
  average percent knockdown: 39%
[4]; 25 min
  average percent knockdown: 52%
[4]; 30 min
  average percent knockdown: 60%
[4]; 40 min
  average percent knockdown: 86%
[4]; 50 min
  average percent knockdown: 87%
[4]; 60 min
  average percent knockdown: 88%

## C#CCON=C(C)c1ccc2ccccc2c1 [I-F]
[1]
  Contact Synergistic Ratio, Carbaryl (LC50 insecticide alone / LC50 with synergist): 200
  Contact Synergistic Ratio, Pyrolan (LC50 insecticide alone / LC50 with synergist): 50
[2]; [8]
  percent kill after 24 hours: 24%
[2]; GS 13005 0.10 + synergist 0.50 μg/fly
  percent kill after 24 hours: 45%
[2]; [9]
  percent kill after 24 hours: 47%
[3]; Diazinon 3.0 + synergist 3.0 μg/fly
  percent kill after 24 hours: 95%
[3]; GS 13005 1.0 + synergist 5.0 μg/fly
  percent kill after 24 hours: 95%
[3]; [10]
  percent kill after 24 hours: 38%

## C#CCON=Cc1ccc(Cl)cc1Cl [I-G]
[2]; Diazinon 0.02 + synergist 0.10 μg/fly
  percent kill after 24 hours: 40%
[3]; Diazinon 3.0 + synergist 15 μg/fly
  percent kill after 24 hours: 100%
[4]; 5 min
  average percent knockdown: 7%
[4]; 10 min
  average percent knockdown: 12%
[4]; 15 min
  average percent knockdown: 31%
[4]; 20 min
  average percent knockdown: 36%
[4]; 25 min
  average percent knockdown: 59%
[4]; 30 min
  average percent knockdown: 66%
[4]; 40 min
  average percent knockdown: 89%
[4]; 50 min
  average percent knockdown: 93%
[4]; 60 min
  average percent knockdown: 94%

## C#CCOCc1ccc(Cl)c(Cl)c1 [II-C]
[1]
  Contact Synergistic Ratio, Carbaryl (LC50 insecticide alone / LC50 with synergist): 100
  Contact Synergistic Ratio, Pyrolan (LC50 insecticide alone / LC50 with synergist): 15
[2]; [8]
  percent kill after 24 hours: 25%
[2]; [11]
  percent kill after 24 hours: 4%
[2]; [6]
  percent kill after 24 hours: 27%
[3]; [10]
  percent kill after 24 hours: 20%

## C#CCOCc1ccc(Cl)c(Cl)c1Cl [II-D]
[1]
  Contact Synergistic Ratio, Carbaryl (LC50 insecticide alone / LC50 with synergist): 200
  Contact Synergistic Ratio, Pyrolan (LC50 insecticide alone / LC50 with synergist): 30
[2]; [8]
  percent kill after 24 hours: 40%
[2]; Mobam 0.13 μg/fly, synergist/insecticide 1/1
  percent mortality 24 hours: 17%
[2]; Mobam 0.25 μg/fly, synergist/insecticide 0.5/1
  percent mortality 24 hours: 30%
[2]; Mobam 0.50 μg/fly, synergist/insecticide 1/1
  percent mortality 24 hours: 100%
[2]; [12]
  percent mortality 24 hours: 100%
[2]; [13]
  percent mortality 24 hours: 100%
[2]; [14]
  percent mortality 24 hours: 100%
[2]; [15]
  percent mortality 24 hours: 100%
[2]; [11]
  percent kill after 24 hours: 10%
[2]; [9]
  percent kill after 24 hours: 100%
[5]
  number of mice dead: 0

## C#CCOCc1c(Cl)ccc(Cl)c1Cl [II-E]
[1]
  Contact Synergistic Ratio, Carbaryl (LC50 insecticide alone / LC50 with synergist): 120
  Contact Synergistic Ratio, Pyrolan (LC50 insecticide alone / LC50 with synergist): 20
[2]; [12]
  percent mortality 24 hours: 100%
[2]; Mobam 1.0 μg/fly, synergist/insecticide 0.5/1
  percent mortality 24 hours: 100%
[2]; [13]
  percent mortality 24 hours: 100%
[2]; [14]
  percent mortality 24 hours: 100%
[2]; [15]
  percent mortality 24 hours: 100%
[2]; [6]
  percent kill after 24 hours: 33%
[2]; [9]
  percent kill after 24 hours: 100%
[2]; synergist alone 1 μg/fly
  percent kill after 24 hours: 0%
[3]; [7]
  percent kill after 24 hours: 17%
[3]; synergist alone 7.5 μg/fly
  percent kill after 24 hours: 0%
[4]; 5 min
  average percent knockdown: 5%
[4]; 10 min
  average percent knockdown: 9%
[4]; 15 min
  average percent knockdown: 17%
[4]; 20 min
  average percent knockdown: 44%
[4]; 25 min
  average percent knockdown: 55%
[4]; 30 min
  average percent knockdown: 59%
[4]; 40 min
  average percent knockdown: 77%
[4]; 50 min
  average percent knockdown: 93%
[4]; 60 min
  average percent knockdown: 95%

## C#CCOCc1c(Cl)cccc1[N+](=O)[O-] [II-K]
[2]; Bidrin 0.063 μg/fly with five parts synergist
  24 hour percent mortality: 0%
[2]; Pyrolan 0.13 μg/fly with five parts synergist
  24 hour percent mortality: 40%
[5]
  number of mice dead: 1
